# A melting point compilation (Tetko et al.; mined from patent text by program, amines drawn as free bases though some values may be those of a salt)
row,Structure (SMILES),melting point [°C]
1,CNC(=O)c1ccc(C)c(-n2c(C)cc(OCc3ccccc3CNC(=O)Nc3cc(C(C)(C)C)nn3-c3ccc(Cl)c(O)c3)c(Cl)c2=O)c1,201 to 203
2,N#Cc1ccc(OCc2cccc(F)c2)cc1,104 to 105
3,COc1ccc2c(c1)N(c1ccc(F)cc1)C(=O)C2NC(=O)c1cc2ccccc2cn1 (stereo not given),219 to 220
4,c1cn(-c2cc(-n3cnc4cc(-c5ccoc5)ccc43)ncn2)cn1,294 to 296
5,C=CCOc1ccccc1-c1ncc(C(N)=O)c(=O)[nH]1,202 to 204
6,COc1c(C)c(-c2ccccc2)nn1N,92 to 94
7,OCC(CO)c1nc(NCc2ccccn2)c2c(-c3ccccc3)csc2n1,137 to 139
8,COc1cccc(-c2nc(-c3ccoc3)n[nH]2)c1,169 to 171
9,Cc1cc(C)cc(P(=O)(c2cc(C)cc(C)c2)c2ccc3ccccc3c2-c2c(P(=O)(c3cc(C)cc(C)c3)c3cc(C)cc(C)c3)ccc3ccccc23)c1,287 to 290
10,O=C1C(=O)c2c(nc3ccccn23)-c2cccc(Br)c21,> 260
11,Nc1nc2c(c3[nH]cnc13)CCCC2,> 300
12,O=Cc1ccc(-c2cccc(-c3cn([C@H]4CN5CCC4CC5)nn3)c2)s1,150
13,CCCCCCCCCCCCCCOc1ccc(CNc2ccc(CO)cc2)cc1,85 to 87
14,Cc1ccc2scc(CCNc3ncnc4c3ncn4C3OC(CO)C(O)C3O)c2c1 (stereo not given),158 to 160
15,O=C1c2nccnc2C(O)N1c1ccc(Cl)cn1 (stereo not given),236
16,CCCCC1(O)C(C)=CC(=O)CC1(C)C (stereo not given),90 to 93
17,COC(=O)c1ncc(C)cc1S(N)(=O)=O,86 to 88
18,COc1ccc(C(=O)Nc2ccc3ccc(Oc4cccc(F)c4)nc3n2)cc1,151
19,[O-][N+]1=C(c2ccccc2F)c2cc(Cl)ccc2N=C(C2CCCN2C=NO)C1 (stereo not given),168 to 172
20,CCCCCCCCc1ccc(C(O)CCCCCC(=O)OC)cc1 (stereo not given),49 to 50
21,CC(C)OC(=O)Nc1cccc(-c2ccnc3c(C(=O)c4ccsc4)cnn23)c1,122 to 124
22,CCCc1nc2c(ccc3[nH]c4cnc(C(=O)OC(C)C)c(C)c4c32)o1,223 to 224
23,Clc1ccc2cccc(-c3cccc4ccccc34)c2n1,133 to 135
24,CN1C(=S)N(c2ccc(C#N)c(C(F)(F)F)c2)C(=N)C1(C)C,173 to 174

row,Structure (SMILES),melting point [°C]
1,Fc1ccc(CSc2nc3cnccc3[nH]2)cc1F,147 to 149
2,NP(N)(=O)OCC(Cl)(Cl)Cl,86 to 87
3,Cc1ccc2c(c1)CCC1=C2CCC(=O)N1C,122
4,Cc1ccc(-c2ccccc2C(=O)Nc2ccc(C(=O)N(CCO)c3ccccc3C)cc2)cc1,115 to 118
5,CN(C)C(=O)N(N)c1ccc(F)c(Cl)c1,88 to 89
6,Oc1cncc(Oc2ccccc2)c1,107
7,O=C1c2cccc3c(Cl)c(Cl)cc(c23)C(=O)N1O,267 to 269
8,COc1cc(COc2nc(-c3ccccc3)ncc2CO)ccc1OCc1nc(-c2ccco2)oc1C,150 to 151
9,COc1ccc2oc(C(=O)O)c(OC)c2c1,168
10,C#CC1(O)CN2CCC1CC2 (stereo not given),199 to 202
11,COc1cc2c(Nc3ccc(Cl)cc3F)ncnc2cc1OCc1ccnc(C#N)c1,209 to 213
12,CCCCCCCc1[nH]c2cc(C(=O)OC)ccc2c1C=O,177 to 180
13,Cc1cc(C(=O)O)ccc1C1=CC(C)(C)CC(C)(C)C1,118 to 120
14,CCCCCCCN(CCCCCSc1nc(-c2ccccc2)c(-c2ccccc2)[nH]1)c1nc2ccccc2o1,58 to 60
15,COc1ccc(-c2ccccn2)c(S(=O)c2nc3cc(OC)c(OC)cc3[nH]2)c1 (stereo not given),208 to 210
16,CC1(C)N=C(c2ccc(N)cc2)CC1c1ccncc1 (stereo not given),175 to 178
17,Cc1cc(O)c(SC(C)(C)C)c(=O)o1,108 to 112
18,CN(C)C(=O)OC1c2ccccc2C(=O)N1c1ccc2ccc(Cl)nc2n1 (stereo not given),217 to 218
19,Nc1ccccc1CN(N)c1ccc(Cl)cc1,83 to 87
20,COC(=O)c1cccc2c(Br)c(OC)ccc12,119
21,Cc1cc(C2CC(C)(C)NC(C)(C)C2)cc(C)c1O,152 to 154
22,Cn1nc2c(oc3ccccc32)c1NCC(F)(F)F,120 to 121
23,Nc1nc(=O)n(C2OC(CO)C(O)C2F)cc1Br (stereo not given),201 to 202
24,O=C(O)CCc1cn(Cc2cccc(C(=O)NCCc3ccccn3)c2)nc1-c1ccccc1,166 to 167

# Continued, values first:
row,melting point [°C],Structure (SMILES)
1,211 to 212,Cc1cc(C)c(S(=O)(=O)NC(COc2ccnc3ccccc23)C(F)(F)F)c(C)c1 (stereo not given)
2,115 to 117,CC(=S)NC[C@H]1CN(c2ccc3c(c2)C[C@@H](C)N3C(=O)CO)C(=O)O1
3,93,O=[N+]([O-])c1cc(F)ccc1NC1CCCCC1
4,112 to 114,CNC(=O)c1ccc(-c2ccc3cnc(Nc4ccc(N5CCC(N6CCN(C)CC6)CC5)cc4OC)nn23)cc1
5,143,COc1cc(C(=O)Nc2cccc3c2CCN(C)C3)cc(OC)c1OC
6,212 to 214,CC(=S)Nc1ccc(-c2nc3ccccc3o2)cc1
7,220,Nc1nc(C(=Cc2cccc3ccccc23)C(=O)O)cs1
8,154,Cc1cc2cc(CN3CCCC3)cnc2cc1NC(=O)c1ccc(-c2ccco2)cc1
9,236 to 238,N#Cc1cccc(-c2c(C(N)=O)c3n(c2Cl)CCN(C(=O)NC2CCOCC2)C3)c1
10,222 to 224,C=CCc1ccc2oc(C(=O)O)cc(=O)c2c1O
11,151 to 152,CCOC(=O)C(C)(C)Cc1c(SC(C)(C)C)c2cc(O)ccc2n1Cc1ccc(Cl)cc1
12,144 to 145,Fc1ccc2c(CN3CCc4ccccc4C3)c[nH]c2c1
13,160 to 162,COC(=O)c1cc2cc(-c3ccc(OC)cc3)ccc2o1
14,150 to 151,Cc1ccc(S(N)(=O)=O)cc1-c1nc(C(F)(F)F)oc1-c1ccccc1
15,144 to 147,CC(C)CNC(=O)C1=C(C(=O)Nc2cc(OC3CCC(C)C3)c(Cl)cc2F)CCCC1 (stereo not given)
16,257 to 259,COc1cccc(C(=O)Nc2ccc(Cn3cnc(O)c3C(N)=O)cc2)c1
17,225 to 260,CC(=O)N1CC(C)(C)c2cc3nc(-c4ccnnc4)[nH]c3cc21
18,152 to 154,NC(=O)c1ccc(F)c2c1OCC=C2
19,58 to 60,CCOC(=O)c1cccc(O)c1C
20,207 to 209,Cc1nc2c(N)nc3ccccc3c2n1CCOCCNC(=O)NC1CCCCC1
21,255,CN(C)C=Cc1ccc([N+](=O)[O-])c2[nH]ncc12
22,117 to 120,CCCCC(=O)C(=Cc1ccc(Cl)cc1)n1cncn1
23,60 to 63,c1ccc(C(CCOc2ccc(CCC3=NCCCO3)cc2)(c2ccccc2)c2ccccc2)cc1
24,137 to 142,COc1cc(Br)c(/C=C/c2cc(/C=C/c3ccc4cc[nH]c4c3)[nH]n2)cc1O
25,125 to 127,Cc1ccc([N+](=O)[O-])c2c1CCN2
26,184,Cc1ccc(C2CCN(CCCCNC(=O)c3ccc(-c4ccc(C#N)cc4)cc3)CC2)c(O)c1

row,melting point [°C],Structure (SMILES)
1,123 to 125,O=S(=O)(Nc1ccc2c(OCc3ccc(Br)cc3F)cccc2c1)C(F)(F)F
2,94 to 95,O=C(Nc1ccc(C(=O)N2Cc3ccccc3-c3ccccc32)cc1)c1ccc(Cl)c(Cl)c1
3,55 to 63,CC(C)C[C@@H](C(=O)N1CCN(C(c2ccc(F)cc2)c2ccc(F)cc2)CC1)N1CCOCC1
4,148 to 150,CCCCOc1nc(N)c2nc(Br)n(C3CCCCO3)c2n1 (stereo not given)
5,126 to 128,CC(C)n1nnnc1-c1ccc(N)c([N+](=O)[O-])c1
6,61 to 62,CCOC(=O)c1c(O)c2cc(F)ccc2c(=O)n1CC1CC1
7,73 to 75,CCOC(=O)C1CCCN(C(=O)/C=C/c2ccc(Sc3ccc4c(c3)OCCO4)c([N+](=O)[O-])c2)C1 (stereo not given)
8,245 to 247,O=C(O)c1cn(C2CN(C(c3ccccc3)c3ccccc3)C2)c2cc(F)c(F)cc2c1=O
9,112 to 114,CC1=C(C(=O)OCC2CC2)C(c2ccccc2C(F)(F)F)c2c(ccnc2OC(C)C)N1 (stereo not given)
10,115 to 120,O=C(O)CCCCN(C1CCNCC1)S(=O)(=O)c1ccccc1
11,190,O=C1c2ccccc2C(=O)N1Oc1ccc([N+](=O)[O-])cc1C(F)(F)F
12,181 to 183,Cc1ccc(CN2CCC(c3cc(-c4ccc(Cl)cc4)[nH]n3)CC2)cc1
13,136 to 138,CC(C)CC1(C(CCN2C(=O)c3cccc([N+](=O)[O-])c3C2=O)C(=O)NO)CCN(CCc2ccccc2)C1=O (stereo not given)
14,94 to 95,CC1(C)CCC(C)(C)c2cc(CC#Cc3ccc(CO)c(O)c3)ccc21
15,225 to 226,O=[N+]([O-])/C=C/c1c2n(c3ccccc13)CCNCC2
16,94 to 96,COC1=C(c2ccccc2)C(CCCC(=O)O)OC1=O (stereo not given)
17,238 to 240,O=S(=O)(c1ccc(Cl)cc1)N1CCC[C@@H](Nc2nccc(-c3c(-c4cccc(C=NO)c4)nc4sccn34)n2)C1
18,175 to 176,COc1ccc(N2CCN(c3ccc(-n4cnn([C@H](C)[C@@]5(c6ccc(F)cc6F)CO5)c4=O)cc3)CC2)cc1
19,84 to 86,CCNc1c(C)c(C)c2c(c1C)CC(C)(CN1CCC(c3ccccc3)CC1)O2 (stereo not given)
20,165,CC(C)(C)OC(=O)Nc1ccc(-c2ccccc2)cc1NC(=O)CC(=O)c1sccc1Cl
21,172 to 173,COc1ccc(Br)c2c1CN(Nc1ccncc1)CC2
22,188 to 190,O=C1c2cc(O)ccc2OCC1Cc1ccncc1 (stereo not given)
23,183 to 185,CCN1c2ncc(COc3cccc4[nH]ccc34)cc2C(=O)N(C)c2ccc(Cl)nc21
24,153 to 155,CC(=Cc1ccc(C(C)C)cc1)COc1cc(C)c(NC=O)c(C)c1C
25,42 to 46,CCOC(=O)C(C(=O)OCC)C(=O)C(C)Oc1ccc(Oc2ccc(C#N)cc2)cc1 (stereo not given)
26,169 to 171,CCC1c2cccn2-c2ccc(C(F)(F)F)cc2N1S(=O)(=O)c1ccc(O)c(Cl)c1 (stereo not given)
